Laboratory results from patent US11629171B2, “Beta-hairpin peptidomimetics” (POLYPHOR AG, priority 2017, dated 2023).
In brackets after ≈: the same amount, converted by molar mass. Where a SMILES comes first, the peptide text is derived from it. Bridges are numbered along the chain shown (N, C = ends). Roman numbers before positions name the chains, in order. [ ]: non-standard residue; d: D form. Thr(ol) = C[C@@H](O)[C@H](N)CO; Tle = CC(C)(C)[C@H](N)C(=O)O; Hiv = CC(C)[C@H](O)C(=O)O; dDab = NCC[C@@H](N)C(=O)O; hSer = N[C@@H](CCO)C(=O)O; Orn = NCCC[C@H](N)C(=O)O; Dab = NCC[C@H](N)C(=O)O; Dap = NC[C@H](N)C(=O)O

Experiments:
Format in all cases: cell-based
[1] = system: Acinetobacter baumannii 872842; conditions: 872842
Procedure, shortened: (§1)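 MIC in μg/mL, read as no visible growth after 18-20 hours at 35° C. Peptides were serially diluted two-fold in MH-II broth plus P-80 (0.002% final, v/v) and inoculated at about 10^6 CFU/mL following the CLSI broth microdilution standard.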

[2] = system: Acinetobacter baumannii DSM 30008; conditions: DSM 30008
Procedure, shortened: as §1

[3] = system: Enterobacter cloacae 848840; conditions: 848840
Procedure, shortened: as §1

Escherichia coli 926415 = conditions: 926415
Procedure, shortened: as §1

[4] = system: Escherichia coli ATCC 25922; conditions: ATCC 25922
Procedure, shortened: as §1

[5] = system: Klebsiella pneumoniae 968733; conditions: 968733
Procedure, shortened: as §1

[6] = system: Klebsiella pneumoniae SSI #3010; conditions: SSI #3010
Procedure, shortened: as §1

[7] = system: Pseudomonas aeruginosa ATCC 27853; conditions: ATCC 27853
Procedure, shortened: as §1

[8] = system: human red blood cells (hRBC); experiment: Hemolysis; conditions: red cells of human, 1 h, 200
Procedure, shortened: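 First, fresh human erythrocytes are washed in PBS; next, they are incubated at 20% (v/v) with compound at 200 μg/mL for 1 h at 37° C. Finally, centrifuged supernatants are diluted and OD540 is taken relative to the Triton X-100 lysis control.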

Compound	MIC [1] [µg/mL]	MIC [2] [µg/mL]	MIC [3] [µg/mL]	MIC (Escherichia coli 926415) [µg/mL]	MIC [4] [µg/mL]	MIC [5] [µg/mL]	MIC [6] [µg/mL]	MIC [7] [µg/mL]	Acinetobacter baumannii DSM 30008 MIC [2] [µg/mL]	Escherichia coli ATCC 25922 MIC [4] [µg/mL]	Klebsiella pneumoniae SSI #3010 MIC [6] [µg/mL]	Pseudomonas aeruginosa ATCC 27853 MIC [7] [µg/mL]	Hemolysis at 200 μg/mL [8] [%]
CC(C)C[C@@H]1NC(=O)[C@@H](CC(C)C)NC(=O)[C@H](CCN)NC(=O)[C@@H](NC(=O)[C@H](CN)NC(=O)[C@@H](NC(=O)[C@H](CCN)NC(=O)CC[C@@H]2NC(=O)CNC(=O)[C@H](CCCN)NC(=O)[C@@H](NC(=O)[C@H](Cc3ccc(O)cc3)NC(=O)[C@@H](NC(=O)[C@@H](O)C(C)C)[C@@H](C)O)CSSC[C@@H](C(=O)N[C@H](C(=O)N[C@@H](C)C(=O)N[C@H](CO)[C@@H](C)O)C(C)(C)C)NC(=O)[C@H](Cc3c[nH]c4ccccc34)NC2=O)[C@@H](C)O)CCNC(=O)[C@H]([C@@H](C)O)NC(=O)[C@H](CCN)NC(=O)[C@H](CCN)NC1=O [Ex. 212] (I: H-[Hiv]TYC[Orn]GEWC[Tle]A[Thr(ol)] / II: [Dab]T[Dap][Dab][Dab][dL]L[Dab][Dab]T; disulfide I:4-I:9; amide I:7-II:N; lactam II:4-II:C)	0.5 (≈ 0.214 µM)	0.125 (≈ 0.0534 µM)	0.5 (≈ 0.214 µM)	1 (≈ 0.427 µM)	0.0625 (≈ 0.0267 µM)	2 (≈ 0.854 µM)	0.25 (≈ 0.107 µM)	0.25 (≈ 0.107 µM)	–	–	–	–	1
CC(=O)N[C@H](C(=O)N[C@H]1CSSC[C@@H](C(=O)N[C@@H](CO)C(N)=O)NC(=O)[C@H](C(C)(C)C)NC(=O)[C@H](CO)NC(=O)[C@H](Cc2c[nH]c3ccccc23)NC(=O)[C@H](CCN)NC(=O)[C@@H](CCN)NC(=O)[C@H](CCC(=O)N[C@@H](CCN)C(=O)N[C@H](C(=O)N[C@@H](CN)C(=O)N[C@H]2CCNC(=O)[C@H]([C@@H](C)O)NC(=O)[C@H](CCN)NC(=O)[C@H](CCN)NC(=O)[C@H]([C@@H](C)O)NC(=O)[C@@H](CC(C)C)NC(=O)[C@H](CCN)NC2=O)[C@@H](C)O)NC(=O)[C@H]([C@@H](C)O)NC(=O)[C@H](Cc2ccc(O)cc2)NC1=O)C(C)C [Ex. 262] (I: Ac-VCYTE[dDab][Dab]WS[Tle]CS-NH2 / II: [Dab]T[Dap][Dab][Dab][dL]T[Dab][Dab]T; disulfide I:2-I:11; amide I:5-II:N; lactam II:4-II:C)	0.0625 (≈ 0.0259 µM)	0.0625 (≈ 0.0259 µM)	0.0625 (≈ 0.0259 µM)	0.25 (≈ 0.104 µM)	0.03125 (≈ 0.0129 µM)	0.25 (≈ 0.104 µM)	0.03125 (≈ 0.0129 µM)	0.125 (≈ 0.0518 µM)	–	–	–	–	1
CC(=O)N[C@H](C(=O)N[C@H]1CCCNC(=O)[C@@H](Cc2ccc(O)cc2)NC(=O)[C@H](C(C)(C)C)NC(=O)[C@H](CO)NC(=O)[C@H](Cc2c[nH]c3ccccc23)NC(=O)[C@H](CCO)NC(=O)[C@@H](CCN)NC(=O)[C@H](CCC(=O)N[C@@H](CCN)C(=O)N[C@H](C(=O)N[C@@H](CN)C(=O)N[C@H]2CCNC(=O)[C@H]([C@@H](C)O)NC(=O)[C@H](CCN)NC(=O)[C@H](CCN)NC(=O)[C@H](CC(C)C)NC(=O)[C@@H](CC(C)C)NC(=O)[C@H](CCN)NC2=O)[C@@H](C)O)NC(=O)[C@H](CO)NC(=O)[C@H](Cc2ccc(O)cc2)NC1=O)C(C)C [Ex. 26] (I: Ac-V[Orn]YSE[dDab][hSer]WS[Tle][dY] / II: [Dab]T[Dap][Dab][Dab][dL]L[Dab][Dab]T; lactam I:2-I:C, II:4-II:C; amide I:5-II:N)	0.125 (≈ 0.0525 µM)	0.03125 (≈ 0.0131 µM)	0.25 (≈ 0.105 µM)	0.125 (≈ 0.0525 µM)	0.0625 (≈ 0.0262 µM)	0.25 (≈ 0.105 µM)	0.125 (≈ 0.0525 µM)	0.25 (≈ 0.105 µM)	–	–	–	–	1
CC(=O)N[C@H](C(=O)N[C@H]1CSSC[C@@H](C(=O)N[C@@H](CO)C(N)=O)NC(=O)[C@H](C(C)C)NC(=O)[C@H](CO)NC(=O)[C@H](Cc2c[nH]c3ccccc23)NC(=O)[C@H](CO)NC(=O)[C@@H](CCN)NC(=O)[C@H](CCC(=O)N[C@@H](CCN)C(=O)N[C@H](C(=O)N[C@@H](CN)C(=O)N[C@H]2CCNC(=O)[C@H]([C@@H](C)O)NC(=O)[C@H](CCN)NC(=O)[C@H](CCN)NC(=O)[C@H](CC(C)C)NC(=O)[C@@H](CC(C)C)NC(=O)[C@H](CCN)NC2=O)[C@@H](C)O)NC(=O)[C@H](Cc2c[nH]cn2)NC(=O)[C@H](Cc2ccc(O)cc2)NC1=O)C(C)C [Ex. 328] (I: Ac-VCYHE[dDab]SWSVCS-NH2 / II: [Dab]T[Dap][Dab][Dab][dL]L[Dab][Dab]T; disulfide I:2-I:11; amide I:5-II:N; lactam II:4-II:C)	0.0625 (≈ 0.0257 µM)	–	0.0625 (≈ 0.0257 µM)	0.125 (≈ 0.0513 µM)	–	0.25 (≈ 0.103 µM)	–	–	0.01562	0.01562	0.125	0.0625	1

Further lines, with some results ahead:

MIC [1] [µg/mL]	MIC [2] [µg/mL]	MIC [3] [µg/mL]	MIC (Escherichia coli 926415) [µg/mL]	MIC [4] [µg/mL]	MIC [5] [µg/mL]	MIC [6] [µg/mL]	MIC [7] [µg/mL]	Acinetobacter baumannii DSM 30008 MIC [2] [µg/mL]	Escherichia coli ATCC 25922 MIC [4] [µg/mL]	Klebsiella pneumoniae SSI #3010 MIC [6] [µg/mL]	Pseudomonas aeruginosa ATCC 27853 MIC [7] [µg/mL]	Compound	Hemolysis at 200 μg/mL [8] [%]
0.0625 (≈ 0.0262 µM)	0.125 (≈ 0.0524 µM)	0.125 (≈ 0.0524 µM)	0.0625 (≈ 0.0262 µM)	0.03125 (≈ 0.0131 µM)	0.125 (≈ 0.0524 µM)	0.125 (≈ 0.0524 µM)	0.125 (≈ 0.0524 µM)	–	–	–	–	CC(C)C[C@@H]1NC(=O)[C@@H](CC(C)C)NC(=O)[C@H](CCN)NC(=O)[C@@H](NC(=O)[C@H](CCN)NC(=O)[C@@H](NC(=O)[C@H](CCN)NC(=O)CC[C@@H]2NC(=O)[C@H](CCN)NC(=O)[C@H](Cc3ccc(O)cc3)NC(=O)[C@@H](NC(=O)[C@@H](O)C(C)C)CSSC[C@@H](C(=O)N[C@H](CO)[C@@H](C)O)NC(=O)[C@H](C(C)(C)C)NC(=O)[C@H](CO)NC(=O)[C@H](Cc3c[nH]c4ccccc34)NC(=O)[C@H](CO)NC(=O)[C@@H](CCN)NC2=O)[C@@H](C)O)CCNC(=O)[C@H]([C@@H](C)O)NC(=O)[C@H](CCN)NC(=O)[C@H](CCN)NC1=O [Ex. 80] (I: H-[Hiv]CY[Dab]E[dDab]SWS[Tle]C[Thr(ol)] / II: [Dab]T[Dab][Dab][Dab][dL]L[Dab][Dab]T; disulfide I:2-I:11; amide I:5-II:N; lactam II:4-II:C)	<1
0.5 (≈ 0.206 µM)	0.125 (≈ 0.0515 µM)	1 (≈ 0.412 µM)	2 (≈ 0.823 µM)	0.0625 (≈ 0.0257 µM)	2 (≈ 0.823 µM)	0.25 (≈ 0.103 µM)	0.25 (≈ 0.103 µM)	–	–	–	–	CC(C)C[C@@H]1NC(=O)[C@@H](CC(C)C)NC(=O)[C@H](CCN)NC(=O)[C@@H](NC(=O)[C@H](CCN)NC(=O)[C@@H](NC(=O)[C@H](CCN)NC(=O)CC[C@@H]2NC(=O)[C@H](CCC(=O)O)NC(=O)[C@H](Cc3ccc(O)cc3)NC(=O)[C@@H](NC(=O)[C@@H](O)C(C)C)CSSC[C@@H](C(=O)N[C@H](CO)[C@@H](C)O)NC(=O)[C@H](C(C)(C)C)NC(=O)[C@H](CN)NC(=O)[C@H](Cc3c[nH]c4ccccc34)NC(=O)[C@H]([C@@H](C)O)NC(=O)[C@@H](CCN)NC2=O)[C@@H](C)O)CCNC(=O)[C@H]([C@@H](C)O)NC(=O)[C@H](CCN)NC(=O)[C@H](CCN)NC1=O [Ex. 91] (I: H-[Hiv]CYEE[dDab]TW[Dap][Tle]C[Thr(ol)] / II: [Dab]T[Dab][Dab][Dab][dL]L[Dab][Dab]T; disulfide I:2-I:11; amide I:5-II:N; lactam II:4-II:C)	<1
0.5 (≈ 0.207 µM)	0.125 (≈ 0.0518 µM)	2 (≈ 0.829 µM)	0.5 (≈ 0.207 µM)	0.125 (≈ 0.0518 µM)	0.5 (≈ 0.207 µM)	0.25 (≈ 0.104 µM)	0.25 (≈ 0.104 µM)	–	–	–	–	CC(C)C[C@@H]1NC(=O)[C@@H](CC(C)C)NC(=O)[C@H](CCN)NC(=O)[C@@H](NC(=O)[C@H](CN)NC(=O)[C@@H](NC(=O)[C@H](CCN)NC(=O)CC[C@@H]2NC(=O)[C@H](CCCN)NC(=O)[C@H](CCN)NC(=O)[C@H](Cc3ccc(O)cc3)NC(=O)[C@@H](NC(=O)[C@@H](O)C(C)C)CSSC[C@@H](C(=O)N[C@H](C(N)=O)[C@@H](C)O)NC(=O)[C@H](C(C)(C)C)NC(=O)[C@H](CO)NC(=O)[C@H](Cc3c[nH]c4ccccc34)NC(=O)[C@H]([C@@H](C)O)NC2=O)[C@@H](C)O)CCNC(=O)[C@H]([C@@H](C)O)NC(=O)[C@H](CCN)NC(=O)[C@H](CCN)NC1=O [Ex. 160] (I: H-[Hiv]CY[Dab][Orn]ETWS[Tle]CT-NH2 / II: [Dab]T[Dap][Dab][Dab][dL]L[Dab][Dab]T; disulfide I:2-I:11; amide I:6-II:N; lactam II:4-II:C)	<1
